From patent publication US10544149B2, “Bicyclic alkyne derivatives and uses thereof” (Agency for Science, Technology and Research, priority 2013, dated 2020) come the findings set out here.

As usually defined, the IC50 is the concentration at which inhibition is half-maximal. A low value points to greater potency.

The target of one test is MNK1 (Homo sapiens, UniProt Q9BUB5). Briefly: MNK1 enzymatic assay. The class given is biochemical.
A further test addresses MNK2 (Homo sapiens, UniProt Q9HBH9). Briefly: MNK2 enzymatic assay. The class given is biochemical.
Test [1] has as its system eIF4e phosphorylation in Hela cell line. Put plainly: eIF4e phosphorylation inhibition in Hela cell line. The note with it: Homo sapiens, cellular. The class given is cell-based.

Bounds are passed on as bounds.

Sequence of MNK1 (Q9BUB5 whole entry): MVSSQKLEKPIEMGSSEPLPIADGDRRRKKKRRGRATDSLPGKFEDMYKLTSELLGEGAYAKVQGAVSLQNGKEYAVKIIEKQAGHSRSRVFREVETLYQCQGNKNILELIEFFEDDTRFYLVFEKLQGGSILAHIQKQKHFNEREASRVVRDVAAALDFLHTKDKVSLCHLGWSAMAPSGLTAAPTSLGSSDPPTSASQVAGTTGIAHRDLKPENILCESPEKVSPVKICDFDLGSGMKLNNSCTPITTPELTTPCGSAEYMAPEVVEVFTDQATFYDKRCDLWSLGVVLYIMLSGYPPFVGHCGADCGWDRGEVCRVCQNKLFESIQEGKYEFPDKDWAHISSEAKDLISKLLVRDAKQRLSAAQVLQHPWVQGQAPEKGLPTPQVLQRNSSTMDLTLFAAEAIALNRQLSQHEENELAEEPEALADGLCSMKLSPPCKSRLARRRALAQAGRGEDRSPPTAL
Sequence of MNK2 (Q9HBH9 whole entry): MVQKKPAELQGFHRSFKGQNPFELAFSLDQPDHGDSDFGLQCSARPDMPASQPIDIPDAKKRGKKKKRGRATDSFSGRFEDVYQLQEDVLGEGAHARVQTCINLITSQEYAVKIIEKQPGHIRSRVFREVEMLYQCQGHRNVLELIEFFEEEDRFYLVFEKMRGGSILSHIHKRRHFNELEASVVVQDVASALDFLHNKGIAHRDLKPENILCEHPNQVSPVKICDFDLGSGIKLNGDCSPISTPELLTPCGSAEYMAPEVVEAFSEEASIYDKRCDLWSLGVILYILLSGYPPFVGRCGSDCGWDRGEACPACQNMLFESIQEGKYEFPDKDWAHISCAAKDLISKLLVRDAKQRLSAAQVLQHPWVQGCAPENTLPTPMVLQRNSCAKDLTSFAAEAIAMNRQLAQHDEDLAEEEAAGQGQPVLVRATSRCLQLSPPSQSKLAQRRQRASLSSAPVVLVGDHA

As for `O=C(Nc1cc(C#Cc2cnc3ccc(-c4ccc(C(=O)N5CCOCC5)cc4)nn23)ccn1)c1cccnc1` [Example 065, N-(4-((6-(4-(morpholine-4-carbonyl)phenyl)imidazo[1,2-b]pyridazin-3-yl)ethynyl)pyridin-2-yl)nicotinamide], the IC50 against MNK1 is less than 0.5 µM; against MNK2, less than 0.5 µM; in test [1], less than 5 µM.
With `CN1CCN(C(=O)c2ccc(-c3cn4c(C#Cc5ccccc5)cnc4cn3)cc2)CC1` [Example 089, (4-methylpiperazin-1-yl) (4-(3-(phenylethynyl)imidazo[1,2-a]pyrazin-6-yl)phenyl)methanone], the IC50 at MNK1 is less than 0.5 µM; at MNK2, less than 0.5 µM; in test [1], less than 5 µM.
`O=C(c1ccc(-c2ccc3ncc(C#Cc4cnc5[nH]ccc5c4)n3n2)cc1)N1CCOCC1` [Example 023, (4-(3-((1H-pyrrolo[2,3-b]pyridin-5-yl)ethynyl)imidazo[1,2-b]pyridazin-6-yl)phenyl) (morpholino)methanone]: the IC50 against MNK1 was less than 0.5 µM; at MNK2, less than 0.5 µM; in test [1], less than 5 µM.
On to `O=C(c1ccc(-c2ccc3ncc(C#Cc4ccnc(Nc5ccncn5)c4)n3n2)cc1)N1CCOCC1` [Example 054, morpholino(4-(3-((2-(pyrimidin-4-ylamino)pyridin-4-yl)ethynyl)imidazo[1,2-b]pyridazin-6-yl)phenyl)methanone], for which the IC50 is less than 0.5 µM against MNK1, less than 0.5 µM on MNK2 and less than 5 µM in test [1].
As for `Nc1cc(C#Cc2cnc3ccc(-c4ccc(C(=O)N5CCOCC5)cc4)nn23)ccn1` [Example 034, (4-(3-((2-aminopyridin-4-yl)ethynyl)imidazo[1,2-b]pyridazin-6-yl)phenyl) (morpholino)methanone], the half-inhibitory concentration (IC50) on MNK1 was less than 0.5 µM; on MNK2, less than 0.5 µM; in test [1], less than 5 µM.
`O=C(c1ccc(-c2ccc3ncc(C#Cc4ccnc5[nH]ncc45)n3c2)cc1)N1CCNCC1` [Example 104, (4-(3-((1H-pyrazolo[3,4-b]pyridin-4-yl)ethynyl)imidazo[1,2-a]pyridin-6-yl)phenyl) (piperazin-1-yl)methanone]: the values for the IC50 (at MNK1; at MNK2; in test [1]) were less than 0.5 µM, less than 0.5 µM and less than 5 µM, respectively.
As to `O=C(c1ccc(-c2ccc3ncc(C#Cc4ccnc5[nH]ccc45)n3n2)cc1)N1CCNCC1` [Example 045, (4-(3-((1H-pyrrolo[2,3-b]pyridin-4-yl)ethynyl)imidazo[1,2-b]pyridazin-6-yl)phenyl)(piperazin-1-yl) methanone], the IC50 at MNK1 is less than 0.5 µM; on MNK2, less than 0.5 µM; in test [1] it was less than 5 µM.
Take `CC(=O)Nc1cccc(C#Cc2cnc3ccc(-c4ccc(C(=O)N5CCN(C)CC5)cc4)nn23)c1` [Example 008, N-(3-((6-(4-(4-methylpiperazine-1-carbonyl)phenyl)imidazo[1,2-b]pyridazin-3-yl)ethynyl)phenyl)acetamide]: the half-maximal inhibitory concentration (IC50) was less than 0.5 µM against MNK1, less than 0.5 µM against MNK2 and less than 5 µM in test [1].
For the compound `Cc1cccc(Nc2cc(C#Cc3cnc4ccc(-c5ccc(C(=O)N6CCOCC6)cc5)nn34)ccn2)c1` [Example 057, morpholino(4-(3-((2-(m-tolylamino)pyridin-4-yl)ethynyl)imidazo[1,2-b]pyridazin-6-yl)phenyl)methanone], the IC50 at MNK1 is less than 0.5 µM; at MNK2, less than 0.5 µM; in test [1], less than 5 µM.
For the compound `O=C(c1ccc(-c2ccc3ncc(C#Cc4ccnc(Nc5ncccn5)c4)n3n2)cc1)N1CCOCC1` [Example 056, morpholino(4-(3-((2-(pyrimidin-2-ylamino)pyridin-4-yl)ethynyl)imidazo[1,2-b]pyridazin-6 yl)phenyl)methanone], the IC50 is less than 0.5 µM at MNK1, less than 0.5 µM against MNK2 and less than 5 µM in test [1].
With `O=C(c1ccc(-c2ccc3ncc(C#Cc4ccnc5[nH]ccc45)n3n2)cc1)N1CCOCC1` [Example 033, (4-(3-((1H-pyrrolo[2,3-b]pyridin-4-yl)ethynyl)imidazo[1,2-b]pyridazin-6-yl)phenyl) (morpholino)methanone], the IC50 against MNK1 is less than 0.5 µM; against MNK2 it was less than 0.5 µM; in test [1] it was less than 5 µM.
As to `O=C(c1ccc(-c2ccc3ncc(C#Cc4cc(NCc5ccccc5)nc5[nH]ccc45)n3n2)cc1)N1CCOCC1` [Example 073, (4-(3-((6-(benzylamino)-1H-pyrrolo[2,3-b]pyridin-4-yl)ethynyl)imidazo[1,2-b]pyridazin-6-yl)phenyl)(morpholino)methanone], the half-inhibitory concentration (IC50) is less than 0.5 µM on MNK1, less than 0.5 µM against MNK2 and less than 5 µM in test [1].
Take `O=C(Nc1cc(C#Cc2cnc3ccc(-c4ccc(C(=O)N5CCOCC5)cc4)nn23)ccn1)c1ccncc1` [Example 064, N-(4-((6-(4-(morpholine-4-carbonyl)phenyl)imidazo[1,2-b]pyridazin-3-yl)ethynyl)pyridin-2-yl)isonicotinamide]: the half-inhibitory concentration (IC50) against MNK1 was less than 0.5 µM; on MNK2, less than 0.5 µM; in test [1], less than 5 µM.
As for `COc1cc(C#Cc2cnc3ccc(-c4ccc(C(=O)N5CCOCC5)cc4)nn23)ccn1` [Example 019, (4-(3-((2-methoxypyridin-4-yl)ethynyl)imidazo[1,2-b]pyridazin-6-yl)phenyl) (morpholino)methanone], the results for the concentration for half-maximal inhibition (IC50) (at MNK1; on MNK2; in test [1]) were less than 0.5 µM, less than 0.5 µM and less than 5 µM, respectively.
Consider `O=C(c1ccc(-c2ccc3ncc(C#Cc4ccncc4)n3n2)cc1)N1CCOCC1` [Example 032], for which the values for the IC50 (against MNK1; on MNK2; in test [1]) were less than 0.5 µM, less than 0.5 µM and less than 5 µM, respectively.
For the compound `O=C(c1ccc(-c2ccc3ncc(C#Cc4ccncc4)n3c2)cc1)N1CCOCC1` [Example 094], the half-maximal inhibitory concentration (IC50) was less than 0.5 µM at MNK1, less than 0.5 µM against MNK2 and less than 5 µM in test [1].
`Cn1ccc2c(C#Cc3cnc4ccc(-c5ccc(C(=O)N6CCOCC6)cc5)nn34)ccnc21` [Example 035, (4-(3-((1-methyl-1H-pyrrolo[2,3-b]pyridin-4-yl)ethynyl)imidazo[1,2-b]pyridazin-6-yl)phenyl)(morpholino) methanone]: the IC50 against MNK1 is less than 0.5 µM; against MNK2 it was less than 0.5 µM; in test [1], less than 5 µM.
As for `Cc1cnccc1C#Cc1cnc2ccc(-c3ccc(C(=O)N4CCOCC4)cc3)cn12` [Example 095, (4-(3-((3-methylpyridin-4-yl)ethynyl)imidazo[1,2-a]pyridin-6-yl)phenyl) (morpholino)methanone], the IC50 at MNK1 was less than 0.5 µM; on MNK2, less than 0.5 µM; in test [1], less than 5 µM.
As for `O=C(c1ccc(-c2ccc3ncc(C#Cc4c[nH]c5ncccc45)n3n2)cc1)N1CCOCC1` [Example 024, (4-(3-((1H-pyrrolo[2,3-b]pyridin-3-yl)ethynyl)imidazo[1,2-b]pyridazin-6-yl)phenyl) (morpholino)methanone], the IC50 against MNK1 was less than 0.5 µM; against MNK2, less than 0.5 µM; in test [1], less than 5 µM.
Turning to `O=C(c1ccc(-c2ccc3ncc(C#Cc4c(C(F)(F)F)cnc5[nH]ccc45)n3n2)cc1)N1CCOCC1` [Example 031, morpholino(4-(3-((5-(trifluoromethyl)-1H-pyrrolo[2,3-b]pyridin-4-yl)ethynyl)imidazo[1,2-b]pyridazin-6-yl)phenyl)methanone], the IC50 at MNK1 was less than 0.5 µM; at MNK2 it was less than 0.5 µM; in test [1] it was less than 5 µM.
Take `CC(=O)Nc1cccc(C#Cc2cnc3ccc(-c4ccc(C(=O)N5CCOCC5)cc4)nn23)c1` [Example 013, N-(3-((6-(4-(morpholine-4-carbonyl)phenyl)imidazo[1,2-b]pyridazin-3-yl)ethynyl)phenyl)acetamide]: the IC50 is less than 0.5 µM against MNK1, less than 0.5 µM at MNK2 and less than 5 µM in test [1].
On to `O=C(CCl)Nc1cc(C#Cc2cnc3ccc(-c4ccc(C(=O)N5CCOCC5)cc4)nn23)ccn1` [Example 043], for which the values for the IC50 (against MNK1; against MNK2; in test [1]) were less than 0.5 µM, less than 0.5 µM and less than 5 µM, respectively.
On to `O=C(c1ccc(-c2ccc3ncc(C#Cc4ccnc(Nc5ccccc5-c5ccccc5)c4)n3n2)cc1)N1CCOCC1` [Example 060, (4-(3-((2-(biphenyl-2-ylamino)pyridin-4-yl)ethynyl)imidazo[1,2-b]pyridazin-6-yl)phenyl)(morpholino)methanone], for which the IC50 against MNK1 was less than 0.5 µM; against MNK2, less than 0.5 µM; in test [1], less than 5 µM.
With `Cc1ccccc1C(=O)Nc1cc(C#Cc2cnc3ccc(-c4ccc(C(=O)N5CCOCC5)cc4)nn23)ccn1` [Example 063, 2-methyl-N-(4-((6-(4-(morpholine-4-carbonyl)phenyl)imidazo[1,2-b]pyridazin-3-yl)ethynyl)pyridin-2-yl)benzamide], the IC50 on MNK1 is less than 0.5 µM; against MNK2, less than 0.5 µM; in test [1] it was less than 5 µM.
For `Nc1cc(C#Cc2cnc3ccc(-c4ccc(C(=O)N5CCNCC5)cc4)cn23)ccn1` [Example 108, (4-(3-((2-aminopyridin-4-yl)ethynyl)imidazo[1,2-a]pyridin-6-yl)phenyl)(piperazin-1-yl)methanone], the IC50 was less than 0.5 µM against MNK1, less than 0.5 µM at MNK2 and less than 5 µM in test [1].
Consider `Cc1c(N)cccc1Nc1cc(C#Cc2cnc3ccc(-c4ccc(C(=O)N5CCNCC5)cc4)cn23)ccn1` [Example 102, (4-(3-((2-(3-amino-2-methylphenylamino)pyridin-4-yl)ethynyl)imidazo[1,2-a]pyridin-6-yl)phenyl) (piperazin-1-yl)methanone], for which the IC50 against MNK1 is less than 0.5 µM; against MNK2 it was less than 0.5 µM; in test [1], less than 5 µM.
Consider `CN1CCN(C(=O)c2ccc(-c3ccc4ncc(C#Cc5ccncc5)n4n3)cc2)CC1` [Example 005, (4-methylpiperazin-1-yl) (4-(3-(pyridin-4-ylethynyl)imidazo[1,2-b]pyridazin-6-yl)phenyl)methanone], for which the half-inhibitory concentration (IC50) was less than 0.5 µM at MNK1, less than 0.5 µM on MNK2 and less than 5 µM in test [1].
